ChEMBL document CHEMBL1145268, “Synthesis and evaluation of 6-hydroxy-7-methoxy-4-chromanone- and chroman-2-carboxamides as antioxidants” (Bioorg Med Chem Lett, 2005)

Assays:
Rattus norvegicus [1] = species: Rattus norvegicus; experiment: Inhibition concentration against lipid peroxidation initiated by [Fe2+] and L-ascorbic acid in rat brain homogenates; type: functional
Rattus norvegicus [2] = species: Rattus norvegicus; experiment: Inhibition concentration against DPPH radical scavenging activity […] was determined; type: functional

IC50 (Rattus norvegicus [1])	IC50 (Rattus norvegicus [2])	Structure (SMILES)
> 300 µM	214 µM	COc1cc2c(cc1O)C(=O)CC(C(N)=O)O2 (stereo unspecified)
51.3 µM	24.8 µM	CCCCNC(=O)C1CCc2cc(O)c(OC)cc2O1 (stereo unspecified)
166 µM	18.2 µM	Cc1c(C)c2c(c(C)c1O)CCC(C)(C(=O)O)O2 (stereo unspecified) [TROLOX]
> 300 µM	16.8 µM	COc1cc2c(cc1O)CCC(C(=O)O)O2 (stereo unspecified)
177 µM	66.4 µM	CCCCNC(=O)C1CC(=O)c2cc(O)c(OC)cc2O1 (stereo unspecified)
293 µM	119 µM	COc1cc2c(cc1O)C(=O)CC(C(=O)Nc1ccccc1)O2 (stereo unspecified)
> 300 µM	80.8 µM	CCCNC(=O)C1CC(=O)c2cc(O)c(OC)cc2O1 (stereo unspecified)
119 µM	42.9 µM	CCCNC(=O)C1CCc2cc(O)c(OC)cc2O1 (stereo unspecified)
16.6 µM	21.7 µM	COc1cc2c(cc1O)CCC(C(=O)NCc1ccccc1)O2 (stereo unspecified)
> 300 µM	104 µM	COc1cc2c(cc1O)C(=O)CC(C(=O)O)O2 (stereo unspecified)
> 300 µM	118 µM	COc1cc2c(cc1O)C(=O)CC(C(=O)NCc1ccccc1)O2 (stereo unspecified)
6.9 µM	24.9 µM	COc1cc2c(cc1O)CCC(C(=O)Nc1ccccc1)O2 (stereo unspecified)
3.8 µM	40.1 µM	COc1cc2c(cc1O)CCC(C(=O)Nc1ccc([N+](=O)[O-])cc1)O2 (stereo unspecified)
